According to PMC5006944 (Cell, 2016):

Columns and labels:
[1] = target: PLK1 association with c-RAF^Ser338 (Homo sapiens, UniProt P04049); assay: PLK1 immunoprecipitation, associated c-RAF^Ser338 in HCT116 cells; type: cell-based; details: HCT116, anti-PLK1 immunoprecipitation
[2] = target: GST-RBD (AA 1–149) of c-RAF (Homo sapiens, UniProt P04049); assay: Differential scanning fluorimetry; type: binding; details: DSF
[3] = target: kinase domain (KD) of c-RAF (AA 306–648) (Homo sapiens, UniProt P04049); assay: Differential scanning fluorimetry; type: binding; details: DSF
[4] = tested on: GTP-RAS in HeLa and A431 cell lines; assay: Active RAS pull-down after EGF stimulation, wild-type RAS cells; type: cell-based; details: serum-starved HeLa and A431 cells, 2 μM
[5] = tested on: c-RAF kinase activity in HeLa and A431 cells; assay: RAF kinase activity of c-RAF immunoprecipitates from EGF-stimulated cells; type: cell-based; details: pre-treatment of cells; MEK substrate
c-RAF/B-RAF heterodimer = c-RAF/B-RAF heterodimer (Homo sapiens, UniProt P04049+P15056); assay: c-RAF/B-RAF co-immunoprecipitation after EGF stimulation; type: cell-based; details: EGF-stimulated HeLa and A431 cells
[6] = tested on: MEK and ERK phosphorylation in HeLa and A431 cells; assay: MEK and ERK phosphorylation western blot, HeLa and A431 cells; type: cell-based
[7] = tested on: c-RAF^Ser338 phosphorylation; assay: EGF-induced c-RAF^Ser338 phosphorylation in HCT116 cells; type: cell-based, human; details: serum-starved HCT116, EGF 5 min
mutant c-RAF RBDs = assay: MST binding to mutant c-RAF RBDs; details: V69A
recombinant Ral-GDS RBD = recombinant Ral-GDS RBD (Homo sapiens, UniProt Q12967); assay: DSF and biotin-RGS pull-down, Ral-GDS RBD; type: binding; details: DSF and pull-down with biotin-RGS conjugate
[8] = target: GTP-RAS and CRAF-RBD interaction (Homo sapiens, UniProt P04049); assay: In vitro association of GST-RBD with GTP-RAS from EGF-stimulated A431 lysates; type: biochemical; details: GST-RBD pre-incubated with increasing concentrations
[9] = tested on: HA-tagged mutant N-RAS G12D GTP-RAS in HeLa cells; assay: Active RAS pull-down, HeLa cells expressing mutant N-RAS G12D; type: cell-based; details: pre-incubation
three RAF proteins = assay: In vitro RAF kinase assays; type: biochemical
[10] = tested on: MEK and ERK activation in N-RAS (G12D)-expressing HeLa, HCT-116 and A549 cells; assay: MEK and ERK activation western blot, mutant RAS cells; type: cell-based
[11] = tested on: c-RAF^Ser338 phosphorylation; assay: c-RAF^Ser338 phosphorylation in synchronized HCT116 cells entering mitosis; type: cell-based, human; details: HCT116, released from double thymidine block
[12] = tested on: c-RAF^Ser338, MEK, ERK, and AKT phosphorylation; assay: Western blot of xenograft tumor extracts; type: in vivo, mouse; details: tumor extracts vs placebo
[13] = tested on: PanIN lesions (K-RAS^G12D); assay: Pdx-cre:Kras^+/LSL G12D mouse model of pancreatic intraepithelial neoplasia; type: in vivo; details: 14 days
PLK1 = details: subsequent experiments by us and others; ref Steegmaier et al., 2007; cited from earlier work
[14] = tested on: MDS patients with monosomy 7 and trisomy 8; details: phase III, MDS with monosomy 7 and trisomy 8; ref Garcia-Manero et al., 2016; cited from earlier work
[15] = tested on: A549 (K-RAS^G12S) xenograft; assay: A549 xenograft tumor growth; details: 100 mg/kg twice daily i.p., 16 days, nude mice
[16] = tested on: HCT116 (K-RAS^G13D) xenograft; assay: HCT116 xenograft tumor growth; details: 100 mg/kg twice daily i.p., 16 days, nude mice
[17] = target: GST-tagged c-RAF RBD (aa 1–149) (Homo sapiens, UniProt P04049); assay: Microscale thermophoresis
[18] = target: GST-tagged B-RAF RBD (aa 151–230) (Homo sapiens, UniProt P15056); assay: Microscale thermophoresis
Chain of GST-tagged B-RAF RBD (aa 151–230) (P15056 151-230): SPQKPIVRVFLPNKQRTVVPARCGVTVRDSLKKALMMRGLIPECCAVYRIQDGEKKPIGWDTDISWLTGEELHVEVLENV

Chain of GST-RBD (AA 1–149) of c-RAF (P04049 1-149): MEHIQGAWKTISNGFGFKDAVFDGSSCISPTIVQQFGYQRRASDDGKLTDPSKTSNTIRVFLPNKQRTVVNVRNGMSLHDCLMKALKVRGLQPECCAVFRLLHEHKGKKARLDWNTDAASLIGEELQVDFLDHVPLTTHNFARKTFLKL
Chain of kinase domain (KD) of c-RAF (AA 306–648) (P04049 306-648): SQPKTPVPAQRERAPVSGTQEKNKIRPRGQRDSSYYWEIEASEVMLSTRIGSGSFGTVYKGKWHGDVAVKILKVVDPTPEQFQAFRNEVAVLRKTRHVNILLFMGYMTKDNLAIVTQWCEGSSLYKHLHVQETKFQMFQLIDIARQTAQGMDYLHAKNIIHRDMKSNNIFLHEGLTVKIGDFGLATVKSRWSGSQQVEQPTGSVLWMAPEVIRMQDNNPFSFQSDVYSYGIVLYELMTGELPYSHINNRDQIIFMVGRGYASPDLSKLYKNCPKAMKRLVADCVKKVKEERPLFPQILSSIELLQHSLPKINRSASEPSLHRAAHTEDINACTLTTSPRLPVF
Chain of PLK1 association with c-RAF^Ser338 (P04049 whole entry, the tested form may be a part): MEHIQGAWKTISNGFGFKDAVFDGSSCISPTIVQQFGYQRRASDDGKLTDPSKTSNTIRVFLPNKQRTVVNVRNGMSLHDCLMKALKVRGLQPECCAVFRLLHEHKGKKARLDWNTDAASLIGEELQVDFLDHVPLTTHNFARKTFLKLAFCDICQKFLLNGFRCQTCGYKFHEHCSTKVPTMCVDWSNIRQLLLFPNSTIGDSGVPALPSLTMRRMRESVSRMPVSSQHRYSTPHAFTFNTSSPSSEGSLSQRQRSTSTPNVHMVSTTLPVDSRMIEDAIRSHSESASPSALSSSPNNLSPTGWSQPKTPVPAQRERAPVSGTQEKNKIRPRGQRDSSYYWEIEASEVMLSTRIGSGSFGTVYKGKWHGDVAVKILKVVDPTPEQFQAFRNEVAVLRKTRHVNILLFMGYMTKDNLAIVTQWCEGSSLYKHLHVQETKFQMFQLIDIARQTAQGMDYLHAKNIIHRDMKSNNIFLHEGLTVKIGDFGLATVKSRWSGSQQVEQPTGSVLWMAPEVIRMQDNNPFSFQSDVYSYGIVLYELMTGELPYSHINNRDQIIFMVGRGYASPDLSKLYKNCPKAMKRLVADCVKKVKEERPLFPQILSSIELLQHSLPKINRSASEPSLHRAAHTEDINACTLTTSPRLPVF
Chain of c-RAF/B-RAF heterodimer (P04049 whole entry): as the sequence (P04049 whole entry, the tested form may be a part) above
Chain of c-RAF/B-RAF heterodimer (P15056 whole entry): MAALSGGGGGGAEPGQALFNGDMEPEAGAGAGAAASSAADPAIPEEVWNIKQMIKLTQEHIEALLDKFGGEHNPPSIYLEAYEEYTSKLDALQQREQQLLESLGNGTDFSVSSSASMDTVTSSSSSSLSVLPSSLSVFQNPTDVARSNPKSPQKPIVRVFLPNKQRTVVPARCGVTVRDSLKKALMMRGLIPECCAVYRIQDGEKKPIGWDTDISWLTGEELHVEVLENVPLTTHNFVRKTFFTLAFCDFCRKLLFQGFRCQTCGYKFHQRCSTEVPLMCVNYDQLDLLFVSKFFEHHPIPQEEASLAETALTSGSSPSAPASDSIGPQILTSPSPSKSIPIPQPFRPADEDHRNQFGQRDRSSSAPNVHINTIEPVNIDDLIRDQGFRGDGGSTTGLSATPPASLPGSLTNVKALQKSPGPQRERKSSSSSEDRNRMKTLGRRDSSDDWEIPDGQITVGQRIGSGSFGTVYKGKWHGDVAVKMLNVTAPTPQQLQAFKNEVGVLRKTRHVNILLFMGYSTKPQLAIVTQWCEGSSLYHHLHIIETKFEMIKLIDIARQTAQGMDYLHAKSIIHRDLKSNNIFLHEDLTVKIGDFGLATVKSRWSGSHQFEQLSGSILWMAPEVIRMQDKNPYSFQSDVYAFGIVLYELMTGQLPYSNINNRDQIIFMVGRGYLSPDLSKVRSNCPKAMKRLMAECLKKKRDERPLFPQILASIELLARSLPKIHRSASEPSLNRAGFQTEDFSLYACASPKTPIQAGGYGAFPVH
Chain of recombinant Ral-GDS RBD (Q12967 798-885 limits assumed): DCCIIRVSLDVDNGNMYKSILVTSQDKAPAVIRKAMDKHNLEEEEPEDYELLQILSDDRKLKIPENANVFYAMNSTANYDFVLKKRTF
Chain of GTP-RAS and CRAF-RBD interaction (P04049 56-131 limits assumed): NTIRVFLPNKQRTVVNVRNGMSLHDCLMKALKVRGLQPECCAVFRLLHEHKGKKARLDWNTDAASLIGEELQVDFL
Chain of GST-tagged c-RAF RBD (aa 1–149) (P04049 1-149): as the sequence (P04049 1-149) above

With `COC(=O)Nc1nc2ccc(C(=O)c3cccs3)cc2[nH]1` [nocadazole, nocodazole, reference compound] the “association of PLK1 with c-RAF^Ser338” value [1] was “strong association”.
With `CCCS(=O)(=O)Nc1ccc(F)c(C(=O)c2c[nH]c3ncc(-c4ccc(Cl)cc4)cc23)c1F` [PLX4032, vemurafenib, reference compound] the “interaction with c-RAF RBD (change in Tm)” value [2] was “not with the RBD”, the “interaction with c-RAF kinase domain (thermal shift)” value [3] was “strong thermal shift” and the “GTP-RAS pulled down by GST-RBD after EGF stimulation” value [4] was “GTP-RAS could readily be pulled down”. For the same molecule, the “EGF-induced activation of RAF kinase activity” value [5] was “enhancement”, the c-RAF/B-RAF heterodimer formation (c-RAF/B-RAF heterodimer) was “enhanced the association” and the “phosphorylation status of MEK and ERK” value [6] was “a small increase or no change”. The “EGF-induced c-RAF^Ser338 phosphorylation” value [7] was “little or no effect”.
For `COc1cc(OC)c(/C=C/S(=O)(=O)Cc2ccc(OC)c(NCC(=O)O)c2)c(OC)c1` [RGS, rigosertib], the “binding affinity to c-RAF RBD mutants with reduced RAS binding” value (mutant c-RAF RBDs; mutants K65A, V70A, and V88A, increased Kd values in MST) was “reduced binding affinities”, the “binding to c-RAF RBD mutants that abolished RAS binding” value (mutant c-RAF RBDs; mutations T57A, R67A, L62A, V69G, and T68A) was “disrupted binding” and the “interaction with c-RAF RBD (change in Tm)” value [2] was “bound to RGS”. The “interaction with c-RAF kinase domain (thermal shift)” value [3] was “did not interact”, the “binding to Ral-GDS RBD” value (recombinant Ral-GDS RBD) was “binds to recombinant Ral-GDS RBD, in a concentration-dependent manner” and the “association of GST-RBD with activated RAS” value [8] was “inhibition of its association with activated RAS in a concentration-dependent manner”. The “GTP-RAS pulled down by GST-RBD after EGF stimulation” value [4] was “very little or no GTP-RAS could be precipitated”, the “levels of mutant GTP-RAS bound to GST-RBD” value [9] was “no effect on the levels of GTP-RAS” and the “EGF-induced activation of RAF kinase activity” value [5] was “inhibits EGF-induced activation of RAF kinase activity”. For the same molecule, the “kinase activity of the three RAF proteins in in vitro assays” value (three RAF proteins) was “does not inhibit”, the c-RAF/B-RAF heterodimer formation (c-RAF/B-RAF heterodimer) was “nearly complete inhibition” and the “phosphorylation status of MEK and ERK” value [6] was “reduction in MEK and ERK phosphorylation”. For the same molecule, the “MEK and ERK activation” value [10] was “inhibits MEK and ERK activation equally well”, the “EGF-induced c-RAF^Ser338 phosphorylation” value [7] was “completely inhibited” and the “reduction of c-RAF^Ser338 phosphorylation” value [11] was 90%. The “association of PLK1 with c-RAF^Ser338” value [1] was “little or no association”, the “c-RAF^Ser338, MEK, ERK, and AKT phosphorylation in tumors” value [12] was “dramatically reduced” and the “decrease in number of PanIN 1B, 2, and 3 grade tumors” value ([13]; 200 mg/kg twice daily i.p.) was “statistically significant”. For the same molecule, the “number of pancreatic lesions, less than placebo-treated group” value ([13]; 200 mg/kg twice daily i.p.) was ~ 3 fold, the “cleaved caspase-3-positive cells in PanIN lesions, greater than control” value ([13]; 200 mg/kg twice daily) was ~4 fold and the “phosphorylated ERK and AKT^Ser473 in PanINs” value ([13]; immunohistochemistry, 200 mg/kg twice daily) was “markedly decreased levels”. The PLK1 kinase activity (PLK1) was “does not directly inhibit”, the “hazard ratio for survival” value [14] was 0.25–0.30 and the tumor growth [15] was “dramatically decreased tumor growth”. For the same molecule, the tumor growth [16] was “dramatically decreased tumor growth”, the Kd [17] was 0.18 nM and the Kd [18] was 0.71 nM.
